Measurements: ChEMBL document CHEMBL2375306, “Antimicrobial peptides containing unnatural amino acid exhibit potent bactericidal activity against ESKAPE pathogens” (Bioorg Med Chem, 2013)
Converted amounts (≈) assume the structure as drawn. Square brackets hold non-standard residues; d marks the D form. Peptide text beside a SMILES is read from it. * marks the point of attachment. ξ: configuration not given here. X6 = NCCCC[C@H](NC(=O)[C@H](CCCCN)NC(=O)[C@H](CCCCN)NC(=O)[C@H](CCCCN)NCCC(=O)[C@@H]1Cc2ccccc2CN1*)C(N)=O; Pro(3ξ,4ξ-(CH2)4) = O=C(O)[C@H]1NCC2CCCCC21; Tic = O=C(O)[C@@H]1Cc2ccccc2CN1

Assays:
Format in all cases: functional
Enterococcus faecium = assay: Antibacterial activity against Enterococcus faecium MMC4 after 24 hrs by broth microdilution method; conditions: MMC4, 24 h
Klebsiella aerogenes = assay: Antibacterial activity against Enterobacter aerogenes after 24 hrs by broth microdilution method
Pseudomonas aeruginosa = assay: Antibacterial activity against Pseudomonas aeruginosa PAO1 after 24 hrs by broth microdilution method; conditions: PAO1, 24 h
Klebsiella pneumoniae = assay: Antibacterial activity against Klebsiella pneumoniae BAMS clinical isolate 07-18 after 24 hrs by broth microdilution method; conditions: BAMS clinical isolate 07-18, 24 h
Acinetobacter baumannii = assay: Antibacterial activity against Acinetobacter baumannii WRAIR clinical isolate 13 after 24 hrs by broth microdilution method; conditions: WRAIR clinical isolate 13, 24 h
Staphylococcus aureus = assay: Antibacterial activity against methicillin-sensitive Staphylococcus aureus UAMS-1 after 24 hrs by broth microdilution method; conditions: UAMS-1, 24 h

| Compound | MBC (Enterococcus faecium) [µg/mL] | MIC (Enterococcus faecium) [µg/mL] | MBC (Klebsiella aerogenes) [µg/mL] | MIC (Klebsiella aerogenes) [µg/mL] | MBC (Pseudomonas aeruginosa) [µg/mL] | MIC (Pseudomonas aeruginosa) [µg/mL] | MBC (Klebsiella pneumoniae) [µg/mL] | MIC (Klebsiella pneumoniae) [µg/mL] | MBC (Acinetobacter baumannii) [µg/mL] | MIC (Acinetobacter baumannii) [µg/mL] | MBC (Staphylococcus aureus) [µg/mL] | MIC (Staphylococcus aureus) [µg/mL] |
| --- | --- | --- | --- | --- | --- | --- | --- | --- | --- | --- | --- | --- |
| CC(C)C[C@H](NC(=O)[C@@H](N)CCCCN)C(=O)N1Cc2ccccc2C[C@H]1C(=O)N1CC2CCCCC2[C@H]1C(=O)N[C@@H](CCCCN)C(=O)NCC(=O)N1Cc2ccccc2C[C@H]1C(=O)N1CC2CCCCC2[C@H]1C(=O)N[C@@H](Cc1ccccc1)C(=O)N1Cc2ccccc2C[C@H]1C(=O)N1CC2CCCCC2[C@H]1C(=O)N[C@@H](CCCCN)C(=O)NCC(=O)N1Cc2ccccc2C[C@H]1C(=O)N1CC2CCCCC2[C@H]1C(=O)N[C@@H](Cc1ccccc1)C(=O)N1Cc2ccccc2C[C@H]1C(=O)N1CC2CCCCC2[C@H]1C(=O)N[C@@H](CCCCN)C(=O)NCC(=O)N1Cc2ccccc2C[C@H]1C(=O)N1CC2CCCCC2[C@H]1C(=O)N[C@@H](CCCCN)C(=O)N[C@@H](CCCCN)C(=O)N[C@@H](CCCCN)C(=O)N[C@@H](CCCCN)C(N)=O (stereo partly drawn) (H-KL[Tic][Pro(3ξ,4ξ-(CH2)4)]KG[Tic][Pro(3ξ,4ξ-(CH2)4)]F[Tic][Pro(3ξ,4ξ-(CH2)4)]KG[Tic][Pro(3ξ,4ξ-(CH2)4)]F[Tic][Pro(3ξ,4ξ-(CH2)4)]KG[Tic][Pro(3ξ,4ξ-(CH2)4)]KKKK-NH2) | 6.25 (≈ 1.79 µM) | 6.25 (≈ 1.79 µM) | > 100 | > 100 | 50 (≈ 14.4 µM) | 50 (≈ 14.4 µM) | 100 (≈ 28.7 µM) | 50 (≈ 14.4 µM) | 12.5 (≈ 3.59 µM) | 12.5 (≈ 3.59 µM) | 50 (≈ 14.4 µM) | 50 (≈ 14.4 µM) |
| CC(=O)N[C@@H](CCCCN)C(=O)N[C@@H](CC(C)C)C(=O)N1Cc2ccccc2C[C@H]1C(=O)N1CC2CCCCC2[C@H]1C(=O)N[C@@H](CCCCN)C(=O)N1Cc2ccccc2C[C@H]1C(=O)N1CC2CCCCC2[C@H]1C(=O)N[C@@H](Cc1ccccc1)C(=O)N1Cc2ccccc2C[C@H]1C(=O)N1CC2CCCCC2[C@H]1C(=O)N[C@@H](CCCCN)C(=O)N1Cc2ccccc2C[C@H]1C(=O)N1CC2CCCCC2[C@H]1C(=O)N[C@@H](Cc1ccccc1)C(=O)N1Cc2ccccc2C[C@H]1C(=O)N1CC2CCCCC2[C@H]1C(=O)N[C@@H](CCCCN)C(=O)N1Cc2ccccc2C[C@H]1C(=O)N1CC2CCCCC2[C@H]1C(=O)N[C@@H](CCCCN)C(=O)N[C@@H](CCCCN)C(=O)N[C@@H](CCCCN)C(=O)N[C@@H](CCCCN)C(N)=O (stereo partly drawn) (Ac-KL[Tic][Pro(3ξ,4ξ-(CH2)4)]K[Tic][Pro(3ξ,4ξ-(CH2)4)]F[Tic][Pro(3ξ,4ξ-(CH2)4)]K[Tic][Pro(3ξ,4ξ-(CH2)4)]F[Tic][Pro(3ξ,4ξ-(CH2)4)]K[Tic][Pro(3ξ,4ξ-(CH2)4)]KKKK-NH2) | 25 (≈ 7.45 µM) | 12.5 (≈ 3.73 µM) | > 100 | > 100 | > 100 | > 100 | > 100 | > 100 | 100 (≈ 29.8 µM) | 100 (≈ 29.8 µM) | 50 (≈ 14.9 µM) | 50 (≈ 14.9 µM) |
| CC(=O)NCC(=O)N[C@@H](Cc1ccccc1)C(=O)N1Cc2ccccc2C[C@H]1C(=O)N1CC2CCCCC2[C@H]1C(=O)NCC(=O)N[C@@H](CCCCN)C(=O)N1Cc2ccccc2C[C@H]1C(=O)N1CC2CCCCC2[C@H]1C(=O)NCC(=O)N[C@@H](Cc1ccccc1)C(=O)N1Cc2ccccc2C[C@H]1C(=O)N1CC2CCCCC2[C@H]1C(=O)NCC(=O)N[C@@H](CCCCN)C(=O)N1Cc2ccccc2C[C@H]1C(=O)CCN[C@@H](CCCCN)C(=O)N[C@@H](CCCCN)C(=O)N[C@@H](CCCCN)C(=O)N[C@@H](CCCCN)C(N)=O (stereo partly drawn) (Ac-GF[Tic][Pro(3ξ,4ξ-(CH2)4)]GK[Tic][Pro(3ξ,4ξ-(CH2)4)]GF[Tic][Pro(3ξ,4ξ-(CH2)4)]GK-X6) | 50 (≈ 20.3 µM) | 12.5 (≈ 5.06 µM) | > 100 | > 100 | > 100 | > 100 | > 100 | > 100 | 25 (≈ 10.1 µM) | 12.5 (≈ 5.06 µM) | > 100 | > 100 |
| CC(C)C[C@H](NC(=O)[C@@H](N)CCCCN)C(=O)N1Cc2ccccc2C[C@H]1C(=O)N1CC2CCCCC2[C@H]1C(=O)N[C@@H](CCCCN)C(=O)N1Cc2ccccc2C[C@H]1C(=O)N1CC2CCCCC2[C@H]1C(=O)NC(=O)CN[C@@H](Cc1ccccc1)C(=O)N1Cc2ccccc2C[C@H]1C(=O)N1CC2CCCCC2[C@H]1C(=O)N[C@@H](CCCCN)C(=O)N1Cc2ccccc2C[C@H]1C(=O)N1CC2CCCCC2[C@H]1C(=O)NC(=O)CN[C@@H](Cc1ccccc1)C(=O)N1Cc2ccccc2C[C@H]1C(=O)N1CC2CCCCC2[C@H]1C(=O)N[C@@H](CCCCN)C(=O)N1Cc2ccccc2C[C@H]1C(=O)N1CC2CCCCC2[C@H]1C(=O)N[C@@H](CCCCN)C(=O)N[C@@H](CCCCN)C(=O)N[C@@H](CCCCN)C(=O)N[C@@H](CCCCN)C(N)=O (stereo partly drawn) | 25 (≈ 7.3 µM) | 6.25 (≈ 1.82 µM) | > 100 | > 100 | 50 (≈ 14.6 µM) | 50 (≈ 14.6 µM) | 100 (≈ 29.2 µM) | > 100 | 100 (≈ 29.2 µM) | 25 (≈ 7.3 µM) | 50 (≈ 14.6 µM) | 50 (≈ 14.6 µM) |
